Experimental data published in patent US20250368647A1, “NITROGEN CONTAINING CONDENSED 2,3-DIHYDROQUINAZOLINONE COMPOUNDS AS NAV1.8 INHIBITORS” (GLAXOSMITHKLINE INTELLECTUAL PROPERTY DEVELOPMENT LIMITED, priority 2022, published 2025).

The molecules below were run against human Nav1.8 (Homo sapiens (Human), UniProt Q9Y5Y9) (assay: QPatch 48 HTX voltage-clamp electrophysiology, half inactivation state (V1/2) protocol, HEK293-Nav1.8 cells). Settings: HEK293 cells expressing human Nav1.8, human Navβ1 and human TREK1, P2 current.
Type: cell-based
Protocol: Human embryonic kidney 293 cells (HEK293) expressing human Nav1.8, human Navβ1 and human TREK1 (HEK293-Nav1.8) were grown in T150 cell culture flasks at 37° C., 5% CO2 incubator. HEK293-Nav1.8 were passaged every 2-3 days when confluency reached 80-90% in T150 cell culture flasks.
Pharmacological assessment of compounds of the invention was performed using the QPatch 48 HTX electrophysiological platform. HEK293-Nav1.8 cells were prepared on the day of use by removing culture media, washing in DPBS, adding Accutase (2 mL to cover the surface, aspirate 1 mL then 1-2 minutes at 37° C.) followed by addition of CHO-SFM II to stop the enzyme digestion and in order to obtain a suspension of 3×10^6 cell/mL.
Compounds of the invention were prepared in an extracellular solution of the following composition: NaCl (145 mM), KCl (4 mM), CaCl2) (2 mM), MgCl (2 mM), HEPES (1 mM), Glucose (10 mM), pH 7.4 with NaOH Osmolality 300 mOsM/L. An intracellular solution of the following composition was used: CsF (115 mM), CsCl (20 mM), NaCl (5 mM), EGTA (10 mM), HEPES (10 mM), Sucrose (20 mM), pH 7.2 with CsOH Osmolality 310 mOsm/L.
Utilizing the voltage-clamp mode in the QPatch 48 HTX system a half inactivation state voltage protocol (V1/2) was used to determine pharmacological activity of compounds of the invention at Nav1.8 ion channels. A V1/2 protocol was utilized with the following voltage steps: a holding voltage of −100 mV was established followed by a 20 ms voltage step to 0 mV (P1), followed by an inactivating voltage step at −46 mV for 8 seconds, followed by a step to −100 mV for 20 ms, before a 20 ms step to 0 mV (P2), then returned to the holding voltage of −100 mV. This voltage protocol was repeated at a frequency of every 15 seconds, the current magnitude was quantified at the P2 step throughout the recording. Inhibition of the measured current amplitude with compounds of the invention was analyzed by fitting a 4-6 points dose-response curve allowing determination of the fifty percent inhibition concentration (IC50). P2 currents were normalized according to measurements made at baseline (Baseline, vehicle only), after compound (Input, at each test concentration), and after positive reference compound (FullResponse, to achieve complete block), fit to the following equation: […]
To assess current run-down over the course of the experiment vehicle-only wells were utilized and the normalized current with vehicle-only (n.IVEH) was determined. To correct the compound response for run-down, the currents were corrected according to the following formula: […]
Compound inhibition was fitted to the following Hill Equation to estimate the half maximal inhibition concentration (IC50)
[formula] • where Y is the normalized run-down corrected inhibition relative to the vehicle control (equivalent to n.IRD_Correct), C the test compound concentration, IC50 the concentration of test compound to inhibit the sodium current by 50%, and h the Hill coefficient.

Sequence of human Nav1.8 (Q9Y5Y9 whole entry): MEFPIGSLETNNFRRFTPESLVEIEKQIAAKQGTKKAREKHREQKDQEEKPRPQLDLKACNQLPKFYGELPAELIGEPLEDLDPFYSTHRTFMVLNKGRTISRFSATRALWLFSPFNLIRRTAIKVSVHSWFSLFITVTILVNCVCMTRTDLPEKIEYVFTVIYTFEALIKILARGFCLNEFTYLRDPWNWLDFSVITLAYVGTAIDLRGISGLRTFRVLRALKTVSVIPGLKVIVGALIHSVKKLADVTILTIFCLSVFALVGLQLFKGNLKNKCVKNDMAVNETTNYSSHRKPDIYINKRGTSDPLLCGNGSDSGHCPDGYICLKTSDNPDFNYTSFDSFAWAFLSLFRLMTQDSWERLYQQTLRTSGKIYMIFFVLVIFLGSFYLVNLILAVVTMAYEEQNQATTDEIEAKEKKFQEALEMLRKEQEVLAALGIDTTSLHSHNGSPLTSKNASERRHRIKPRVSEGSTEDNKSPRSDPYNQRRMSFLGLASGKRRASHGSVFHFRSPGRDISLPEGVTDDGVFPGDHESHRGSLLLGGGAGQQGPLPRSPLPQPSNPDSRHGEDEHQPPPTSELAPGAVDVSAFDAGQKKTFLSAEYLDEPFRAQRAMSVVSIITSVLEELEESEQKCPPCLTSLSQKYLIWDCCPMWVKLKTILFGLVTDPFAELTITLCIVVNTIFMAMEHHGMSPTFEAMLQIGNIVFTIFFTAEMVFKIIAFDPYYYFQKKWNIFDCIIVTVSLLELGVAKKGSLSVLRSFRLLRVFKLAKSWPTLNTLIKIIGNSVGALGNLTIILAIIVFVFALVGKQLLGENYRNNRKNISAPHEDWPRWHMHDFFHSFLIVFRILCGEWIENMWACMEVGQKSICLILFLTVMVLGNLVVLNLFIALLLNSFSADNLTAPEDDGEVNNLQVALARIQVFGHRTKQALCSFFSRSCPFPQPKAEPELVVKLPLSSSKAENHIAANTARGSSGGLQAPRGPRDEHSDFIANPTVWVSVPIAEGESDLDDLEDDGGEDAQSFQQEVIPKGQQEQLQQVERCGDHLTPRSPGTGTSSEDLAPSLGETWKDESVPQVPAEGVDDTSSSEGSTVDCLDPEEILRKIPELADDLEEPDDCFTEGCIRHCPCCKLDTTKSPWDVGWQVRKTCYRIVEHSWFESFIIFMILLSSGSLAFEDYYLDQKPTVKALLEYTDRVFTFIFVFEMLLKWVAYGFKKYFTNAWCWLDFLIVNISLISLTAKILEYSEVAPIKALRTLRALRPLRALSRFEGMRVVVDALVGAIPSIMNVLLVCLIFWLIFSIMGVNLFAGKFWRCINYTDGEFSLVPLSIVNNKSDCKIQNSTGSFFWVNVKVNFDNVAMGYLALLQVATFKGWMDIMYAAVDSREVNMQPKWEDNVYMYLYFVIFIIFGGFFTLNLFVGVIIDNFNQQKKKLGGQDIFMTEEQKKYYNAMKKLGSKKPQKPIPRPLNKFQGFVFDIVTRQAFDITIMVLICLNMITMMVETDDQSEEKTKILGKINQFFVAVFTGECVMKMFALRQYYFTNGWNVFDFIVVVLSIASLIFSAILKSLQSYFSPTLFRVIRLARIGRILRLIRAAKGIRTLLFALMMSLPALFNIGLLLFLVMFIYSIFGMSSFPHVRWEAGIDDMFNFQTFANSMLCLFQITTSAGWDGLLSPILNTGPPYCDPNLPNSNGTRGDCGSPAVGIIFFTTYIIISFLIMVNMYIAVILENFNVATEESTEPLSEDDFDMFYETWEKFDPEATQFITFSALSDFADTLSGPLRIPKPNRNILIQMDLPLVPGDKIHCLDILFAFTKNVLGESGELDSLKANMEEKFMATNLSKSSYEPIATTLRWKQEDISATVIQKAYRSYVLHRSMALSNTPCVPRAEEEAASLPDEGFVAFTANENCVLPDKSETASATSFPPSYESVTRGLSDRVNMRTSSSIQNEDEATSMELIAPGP
Sequence of human Nav1.8 (Q07699 19-218 partner): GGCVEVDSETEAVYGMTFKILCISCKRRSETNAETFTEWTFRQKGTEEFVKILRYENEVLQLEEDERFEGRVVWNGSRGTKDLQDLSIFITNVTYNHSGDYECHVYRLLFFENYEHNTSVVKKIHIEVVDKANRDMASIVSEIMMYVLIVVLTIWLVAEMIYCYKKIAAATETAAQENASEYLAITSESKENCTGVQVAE

| SMILES | Nav1.8, pIC50 |
| --- | --- |
| CN1CCCCc2cc(F)ccc2N2CN(C(=O)c3ccc(C(F)(F)F)cc32)c2cc(I)c(=O)[nH]c21 [Example 14, 3^4-Fluoro-1^3-iodo-8-methyl-2^7-(trifluoromethyl)-1^1, 1^2,2^1,2^2,2^3,2^4-hexahydro-8-aza-2(3,1)-quinazolina-1(5,6)-pyridina-3(1,2)-benzenacyclooctaphan-1^2,2^4-dione] | 6.9 |
| O=C1c2cc(C(F)(F)F)ccc2N2CN1c1ccc(=O)[nH]c1NCCOc1cc(F)ccc12 [Example 15, 8-Fluoro-2-(trifluoromethyl)-12,13-dihydro-11H,19H-5,18-methanodibenzo[i,j]pyrido[2,3-e][1]oxa[4,7,11]triazacyclotridecine-15,19(14H)-dione] | 5.7 |
| O=C1c2cc(C(F)(F)F)ccc2N2CN1c1ccc(=O)[nH]c1CCCOc1cc(F)ccc12 [Example 16, 8-Fluoro-2-(trifluoromethyl)-12,13-dihydro-11H,19H-5,18-methanodibenzo[b,e]pyrido[3,2-i][1]oxa[4,8]diazacyclotridecine-15,19(14H)-dione] | 6.0 |
| O=C1c2cc(C(F)(F)F)cnc2N2CN1c1ccc(=O)[nH]c1CCCCc1cc(OC(F)(F)F)ccc12 [Example 17, 8-(Trifluoromethoxy)-2-(trifluoromethyl)-10,11,12,13-tetahydro-19H,19H-5,18-methano-dibenzo[l]pyrido[2,3-b:3′,2′-f][1,5]diazacyclotridecine-15,19(14H)-dione] | 6.1 |
| O=C1c2ccc(C(F)(F)F)cc2N2CN1c1ccc(=O)[nH]c1CCCCOc1cc(F)ccc12 [Example 18, 3^4-Fluoro-2^7-(trifluoromethyl)-1^1,1^2,2^1,2^2,2^3,2^4-hexahydro-4-oxa-2(3,1)-quinazolina-1(5,6)-pyridina-3(1,2)-benzenacyclooctaphane-1^2,2^4-dione] | 6.5 |
| O=C1c2cc(Cl)cnc2N2CN1c1ccc(=O)[nH]c1CCCCCc1cc(F)ccc12 [Example 20, 2^6-Chloro-3^4-fluoro-1^1,1^2,2^1,2^2,2^3,2^4-hexahydro-2(3,1)-pyrido[2,3-d]pyrimidina-1(5,6)-pyridina-3(1,2)-benzenacyclooctaphane-1^2,2^4-dione] | 7.2 |
| O=C1c2cc(C(F)(F)F)ncc2N2CN1c1ccc(=O)[nH]c1CCCCCc1cc(F)ccc12 [Example 21, 3^4-Fluoro-2^6-(trifluoromethyl)-1^1,1^2,2^1,2^2,2^3,2^4-hexahydro-2(3,1)-pyrido[3,4-d]pyrimidina-1(5,6)-pyridina-3(1,2)-benzenacyclooctaphane-1^2,2^4-dione] | 7.6 |
| O=C1c2ccc(C(F)(F)F)nc2N2CN1c1ccc(=O)[nH]c1CCCCCc1cc(F)ccc12 [Example 22, 3^4-Fluoro-2^7-(trifluoromethyl)-1^1,1^2,2^1,2^2,2^3,2^4-hexahydro-2(3,1)-pyrido[2,3-d]pyrimidina-1(5,6)-pyridina-3(1,2)-benzenacyclooctaphane-1^2,2^4-dione] | 7.6 |
| O=C1c2cc(C(F)(F)F)cnc2N2CN1c1ccc(=O)[nH]c1CCCCCc1cc(F)ccc12 [Example 23, 3^4-Fluoro-2^6-(trifluoromethyl)-1^1,1^2,2^1,2^2,2^3,2^4-hexahydro-2(3,1)-pyrido[2,3-d]pyrimidina-1(5,6)-pyridina-3(1,2)-benzenacyclooctaphane-1^2,2^4-dione] | 7.2 |
| O=C1c2cc(C(F)(F)F)cnc2N2CN1c1ccc(=O)[nH]c1CC/C=C\Cc1cc(F)ccc12 [Example 24, 3^4-Fluoro-2^6-(trifluoromethyl)-1^1,1^2,2^1,2^2,2^3,2^4-hexahydro-2(3,1)-pyrido[2,3-d]pyrimidina-1(5,6)-pyridina-3(1,2)-benzenacyclooctaphan-5-ene-1^2,2^4-dione] | 7.7 |
| O=C1c2cc(C(F)(F)F)ccc2N2CN1c1ccc(=O)[nH]c1CCCCNc1cc(F)ccc12 [Example 25, 3^4-Fluoro-2^6-(trifluoromethyl)-1^1,1^2,2^1,2^2,2^3,2^4-hexahydro-4-aza-2(3,1)-quinazolina-1(5,6)-pyridina-3(1,2)-benzenacyclooctaphan-1^2,2^4-dione] | 6.2 |
| O=C1c2cc(C(F)(F)F)ccc2N2CN1c1cc[n+]([O-])cc1CCCCCc1cc(F)ccc12 [Example 26, 3^4-Fluoro-2^4-oxo-2^6-(trifluoromethyl)-2^1,2^2,2^3,2^4-tetrahydro-2(3,1)-quinazolina-1(4,3)-pyridin-1-iuma-3(1,2)-benzenacyclooctaphan-1-oxide] | 8.3 |
| O=C1c2cc(C(F)(F)F)ccc2N2CN1c1ccc(=O)[nH]c1NCCCc1cc(F)ccc12 [Example 27, 8-Fluoro-2-(trifluoromethyl)-10,11,12,13-tetrahydro-19H-5,18-methanodibenzo[f,i]pyrido[2,3-b][1,4,8]triazocyclotridecine-15,19(14H)-dione] | 7.8 |
| O=C1c2ccc(C(F)(F)F)cc2N2CN1c1ccc(=O)[nH]c1NCCCc1cc(F)ccc12 [Example 28, 8-Fluoro-3-(trifluoromethyl)-10,11,12,13-tetrahydro-19H-5,18-methanodibenzo[f,i]pyrido[2,3-b][1,4,8]triazocyclotridecine-15,19(14H)-dione] | 7.5 |
| O=C1c2cc(C(F)(F)F)ccc2N2CN1c1cc(Cl)c(=O)[nH]c1NCCCc1cc(F)ccc12 [Example 29, 16-Chloro-8-fluoro-2-(trifluoromethyl)-10,11,12,13-tetrahydro-19H-5,18-methanodibenzo[f,i]pyrido[2,3,-b][1,4,8]triazacyclotridecine-15,19(14H)-dione] | 7.1 |
| CN1CCCc2cc(F)ccc2N2CN(C(=O)c3cc(C(F)(F)F)ccc32)c2ccc(=O)[nH]c21 [Example 30, 8-Fluoro-13-methyl-2-(trifluoromethyl)-10,11,12,13-tetrahydro-19H-5,18-methanodibenzo[f,i]pyrido[2,3,-b][1,4,8]triazacyclotridecine-15,19(14H)-dione] | 6.9 |
| O=C1c2cc(OC(F)(F)F)ccc2N2CN1c1ccc(=O)[nH]c1NCCCc1cc(F)ccc12 [Example 31, 8-Fluoro-2-(trifluoromethoxy)-10,11,12,13-tetrahydro-19H-5,18-methanodibenzo[f,i]pyrido[2,3,-b][1,4,8]triazacyclotridecine-15,19(14H)-dione] | 7.5 |
| O=C1c2cc(F)c(C(F)(F)F)cc2N2CN1c1ccc(=O)[nH]c1NCCCc1cc(F)ccc12 [Example 32, 2,8-Difluoro-3-(trifluoromethyl)-10,11,12,13-tetrahydro-19H-5,18-methanodibenzo[f,i]pyrido[2,3,-b][1,4,8]triazacyclotridecine-15,19(14H)-dione] | 8.4 |
| O=C1c2c(ccc(C(F)(F)F)c2F)N2CN1c1ccc(=O)[nH]c1NCCCc1cc(F)ccc12 [Example 33, 1,8-Difluoro-2-(trifluoromethyl)-10,11,12,13-tetrahydro-19H-5,18-methanodibenzo[f,i]pyrido[2,3,-b][1,4,8]triazacyclotridecine-15,19(14H)-dione] | 7.5 |
| O=C1c2cc(C(F)(F)F)cnc2N2CN1c1ccc(=O)[nH]c1NCCCc1cc(F)ccc12 [Example 34, 8-Fluoro-2-(trifluoromethyl)-10,11,12,13-tetrahydro-19H-5,18-methanodibenzo[i]dipyrido[2,3,-b:3′,2′-f][1,4,8]triazacyclotridecine-15,19(14H)-dione] | 6.4 |
| O=C1c2cc(C(F)(F)F)ncc2N2CN1c1ccc(=O)[nH]c1NCCCc1cc(F)ccc12 [Example 35, 8-Fluoro-2-(trifluoromethyl)-10,11,12,13-tetrahydro-19H-5,18-methanodibenzo[i]dipyrido[2,3,-b:4′,3′-f][1,4,8]triazacyclotridecine-15,19(14H)-dione] | 6.9 |
| O=C1c2cnc(C(F)(F)F)cc2N2CN1c1ccc(=O)[nH]c1NCCCc1cc(F)ccc12 [Example 36, 8-Fluoro-3-(trifluoromethyl)-10,11,12,13-tetrahydro-19H-5,18-methanodibenzo[i]dipyrido[2,3,-b:3′,4′-f][1,4,8]triazacyclotridecine-15,19(14H)-dione] | 6.6 |
